Experimental data published in patent US20210023089A1, “Compositions Useful for Treating Herpes Simplex Keratitis, and Methods Using Same” (priority 2013, published 2021).

Legend:
[1] = system: HSV-1; test: Time-of-addition of KU-55933 in HSV-1 infected hTCEpi cells (Western blot gC, qRT-PCR genome); format: cell-based; details: MOI 1, KU-55933 10 μM, read at 8 hpi
Protocol: Standard protocol was followed for Western blot analysis. Cell lysates were collected in Laemmli buffer, vortexed, and boiled at 95° C. for 5 min. Protein concentrations were measured by reducing agent-compatible BCA assay. SDS-PAGE was followed by transfer onto a PVDF membrane, which was then blocked in 5% BSA. Primary antibody staining was performed overnight and blots were visualized on film or with the Odyssey near-infrared system (LI-COR, Lincoln, Nebr.). Primary antibodies against the following proteins were used: ICP0 (Virusys Corporation, Taneytown, Md.), ICP4, PML, and nucleolin (Santa Cruz Biotechnology, Santa Cruz, Calif.), ICP8, glycoproteins B and C, ATM and pATM-Ser1981 (Rockland, Gilbertsville, Pa.), Chk2 and pChk2-Thr68 (Cell Signaling, Danvers, Mass.).
Total DNA was isolated from infected cells using the DNeasy Blood & Tissue Kit (QIAGEN, Hilden, Germany). Real time quantitative PCR was performed with SYBR Green (Bio-Rad, Hercules, Calif.). Target primers for UL30 (DNA polymerase catalytic subunit) and reference primers for GAPDH were used to measure genome replication. Primer sequences were provided in Alekseev et al., 2014, Invest. Ophthalm. Vis. Sci. 55:706-715). Real time PCR data were processed using the ΔΔC(t) method.
hTCEpi, EPC2, and OKF6 are normal human epithelial cells from cornea, esophagus, and palate, respectively. […]

[2] = target: T1, ATM (Homo sapiens, UniProt Q13315); test: pATM Western blot in bleomycin-damaged ex vivo human corneas (bioavailability); format: cell-based; details: bleomycin 200 μg/mL 1 hour, KU-55933 10 μM 1 hour pretreatment
T1 construct: The epithelial layers were collected for protein lysates and analyzed by Western blot with antibodies against pATM (Ser1981) and total ATM; tissue Lions Eye Bank of Delaware Valley; host or cells: epithelial layer of explanted human corneas
T1 sequence (Q13315 whole entry): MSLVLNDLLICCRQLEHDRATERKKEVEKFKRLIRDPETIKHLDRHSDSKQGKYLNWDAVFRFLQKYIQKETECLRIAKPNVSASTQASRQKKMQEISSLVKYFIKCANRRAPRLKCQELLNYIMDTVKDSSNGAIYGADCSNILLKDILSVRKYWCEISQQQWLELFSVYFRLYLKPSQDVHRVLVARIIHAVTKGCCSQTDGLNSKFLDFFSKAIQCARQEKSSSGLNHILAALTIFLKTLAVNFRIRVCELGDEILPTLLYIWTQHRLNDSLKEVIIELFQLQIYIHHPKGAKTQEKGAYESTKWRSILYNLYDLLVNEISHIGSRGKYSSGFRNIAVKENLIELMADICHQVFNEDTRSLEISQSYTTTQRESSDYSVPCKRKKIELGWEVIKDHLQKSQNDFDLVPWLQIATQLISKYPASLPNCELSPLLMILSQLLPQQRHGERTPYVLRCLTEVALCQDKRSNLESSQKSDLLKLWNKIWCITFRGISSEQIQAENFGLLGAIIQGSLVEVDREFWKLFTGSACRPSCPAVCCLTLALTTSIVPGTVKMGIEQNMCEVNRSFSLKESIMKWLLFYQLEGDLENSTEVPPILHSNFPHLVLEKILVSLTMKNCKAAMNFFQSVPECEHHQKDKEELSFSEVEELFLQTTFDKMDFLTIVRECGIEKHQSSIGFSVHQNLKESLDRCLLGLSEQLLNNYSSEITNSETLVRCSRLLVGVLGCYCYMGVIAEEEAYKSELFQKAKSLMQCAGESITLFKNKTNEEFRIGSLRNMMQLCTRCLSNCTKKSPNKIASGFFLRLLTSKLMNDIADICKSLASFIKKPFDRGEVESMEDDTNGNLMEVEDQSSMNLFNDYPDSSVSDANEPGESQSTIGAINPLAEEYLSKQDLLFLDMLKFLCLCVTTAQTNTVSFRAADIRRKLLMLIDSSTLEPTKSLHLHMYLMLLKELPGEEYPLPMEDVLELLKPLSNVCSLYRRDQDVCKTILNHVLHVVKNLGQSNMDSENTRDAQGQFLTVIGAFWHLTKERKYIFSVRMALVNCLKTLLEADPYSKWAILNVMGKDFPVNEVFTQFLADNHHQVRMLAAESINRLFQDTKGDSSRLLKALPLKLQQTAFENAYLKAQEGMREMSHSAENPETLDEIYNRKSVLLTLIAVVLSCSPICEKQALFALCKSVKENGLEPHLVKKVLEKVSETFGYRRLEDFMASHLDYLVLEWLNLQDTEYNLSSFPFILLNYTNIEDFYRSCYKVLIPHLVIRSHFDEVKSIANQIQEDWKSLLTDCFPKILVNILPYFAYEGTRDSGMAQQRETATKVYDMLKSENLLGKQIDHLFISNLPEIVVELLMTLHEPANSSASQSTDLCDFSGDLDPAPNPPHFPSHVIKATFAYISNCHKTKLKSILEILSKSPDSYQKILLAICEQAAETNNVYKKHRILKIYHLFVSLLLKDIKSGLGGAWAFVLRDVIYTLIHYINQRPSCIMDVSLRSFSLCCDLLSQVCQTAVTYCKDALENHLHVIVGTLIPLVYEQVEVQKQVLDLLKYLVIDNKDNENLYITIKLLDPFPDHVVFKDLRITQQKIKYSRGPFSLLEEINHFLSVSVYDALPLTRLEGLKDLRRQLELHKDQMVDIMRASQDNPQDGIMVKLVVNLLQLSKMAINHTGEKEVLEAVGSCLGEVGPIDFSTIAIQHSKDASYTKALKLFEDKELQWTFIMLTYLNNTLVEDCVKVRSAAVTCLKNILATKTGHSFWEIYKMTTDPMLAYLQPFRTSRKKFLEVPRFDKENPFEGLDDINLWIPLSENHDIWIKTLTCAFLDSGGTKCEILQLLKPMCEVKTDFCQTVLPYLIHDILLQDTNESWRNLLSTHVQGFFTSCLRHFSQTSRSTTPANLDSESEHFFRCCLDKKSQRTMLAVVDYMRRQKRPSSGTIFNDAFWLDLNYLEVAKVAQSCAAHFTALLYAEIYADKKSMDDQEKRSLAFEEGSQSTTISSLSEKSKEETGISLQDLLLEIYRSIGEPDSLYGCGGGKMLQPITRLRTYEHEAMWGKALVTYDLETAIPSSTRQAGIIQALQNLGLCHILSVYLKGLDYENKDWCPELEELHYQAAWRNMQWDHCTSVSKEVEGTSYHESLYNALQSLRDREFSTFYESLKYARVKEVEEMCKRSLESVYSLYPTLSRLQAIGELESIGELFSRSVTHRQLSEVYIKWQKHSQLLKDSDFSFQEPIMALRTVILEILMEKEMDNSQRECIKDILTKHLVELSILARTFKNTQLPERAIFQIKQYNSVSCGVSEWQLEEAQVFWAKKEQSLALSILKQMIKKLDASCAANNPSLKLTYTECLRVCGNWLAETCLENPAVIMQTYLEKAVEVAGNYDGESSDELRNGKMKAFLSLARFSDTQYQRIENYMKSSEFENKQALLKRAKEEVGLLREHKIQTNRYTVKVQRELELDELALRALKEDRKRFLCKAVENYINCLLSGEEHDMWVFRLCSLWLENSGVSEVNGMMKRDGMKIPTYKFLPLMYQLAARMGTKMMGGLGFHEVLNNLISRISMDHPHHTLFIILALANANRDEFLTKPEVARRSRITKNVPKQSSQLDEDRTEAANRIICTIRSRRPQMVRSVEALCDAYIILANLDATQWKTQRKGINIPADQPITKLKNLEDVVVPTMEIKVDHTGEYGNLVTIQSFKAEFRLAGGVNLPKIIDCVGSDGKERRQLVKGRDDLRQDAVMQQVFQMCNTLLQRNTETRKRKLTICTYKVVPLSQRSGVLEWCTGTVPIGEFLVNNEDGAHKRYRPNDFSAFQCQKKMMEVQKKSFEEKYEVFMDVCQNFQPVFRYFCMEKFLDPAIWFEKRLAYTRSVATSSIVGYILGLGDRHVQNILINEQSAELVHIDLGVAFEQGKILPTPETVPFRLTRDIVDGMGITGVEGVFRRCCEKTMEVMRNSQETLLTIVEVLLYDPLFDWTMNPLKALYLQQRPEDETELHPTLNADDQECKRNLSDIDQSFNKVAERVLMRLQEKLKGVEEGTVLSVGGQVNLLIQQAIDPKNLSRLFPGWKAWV
Protocol: Human corneas were obtained from the Lions Eye Bank of Delaware Valley. Rabbit corneas were excised from intact fresh eyeballs of young (8-12 weeks) albino rabbits (Pel-Freez Biologicals, Rogers, Ark.). Protocol (Alekseev et al., 2012, J Vis Exp 69:e3631) for ex vivo corneal culture, infection, and treatment was followed closely. Briefly, corneoscleral buttons were excised and rinsed in PBS containing 200 U/mL penicillin and 200 μg/mL streptomycin. The endothelial concavity was filled with culture medium containing 1% low melting temperature agarose. The corneas were cultured epithelial side up in MEM medium supplemented with nonessential amino acids (1×), 2 mM […], 200 U/mL penicillin, and 200 μg/mL streptomycin. The next day, they were infected with 1×10^4 plaque forming units (PFU)/cornea of strain KOS HSV-1 for 1 hour, rinsed, and overlaid with fresh medium. Drug treatments were administered at the same concentrations as for cultured cells. For KU-55933 bioavailability assessment, corneas were treated with bleomycin (200 μg/mL) for 1 hour. […] Treatment toxicity was assessed by briefly staining the cornea with fluorescein (1% wt/vol in PBS) and imaging the epithelial defects with 464-nm wavelength blue light (LDP LLC, Carlstadt, N.J.).
Standard protocol was followed for Western blot analysis. […] Protein concentrations were measured by bicinchoninic acid (BCA) assay. […]

[3] = system: HSV-1; test: Western blot of viral proteins in HSV-1 infected hTCEpi cells; format: cell-based, HSV-1 (KOS strain); details: MOI 0.1, 10 μM, 16 hpi
Protocol: (§1) The following strains of HSV-1 were used: KOS, ICPO-null, HFEM, and tsB7. Subconfluent monolayers of cells were grown in six-well plates. Drug treatments were administered 45 minutes prior to infection and continued for the entire duration of each experiment. Unless indicated otherwise, KU-55933 (Batch No. 5, 99.7% purity; Tocris Bioscience, Bristol, UK) was used at 10 μM final concentration, phosphonoacetic acid (PAA) at 400 μg/mL (Sigma-Aldrich, St. Louis, Mo.), and acyclovir at 50 μg/mL (Sigma-Aldrich). KU-55933 was dissolved in dimethyl sulfoxide (DMSO), and the final concentration of DMSO in both KU-55933 and mock treatment in the in vitro and the ex vivo experiments was 0.1%.
Standard protocol was followed for Western blot analysis. Cell lysates were collected in 200 μL Laemmli buffer, vortexed, and boiled at 95° C. for 5 minutes. Protein concentrations were measured by bicinchoninic acid (BCA) assay. SDS-PAGE was followed by transfer onto a polyvinylidene difluoride (PVDF) membrane, which was then blocked in 5% BSA. […]

[4] = system: HSV-1; test: qRT-PCR of viral transcripts in HSV-1 infected hTCEpi cells; format: cell-based, HSV-1 (KOS strain); details: MOI 0.1, 10 μM, 16 hpi
Protocol: as §1
Viral genome replication and transcription were measured by quantitative PCR (qPCR). Total DNA and RNA from infected cells were isolated using the DNeasy Blood & Tissue Kit and the RNeasy Mini Kit, respectively (QIAGEN, Hilden, Germany). RNA was converted to cDNA using qScript (Quanta BioSciences, Gaithersburg, Md.). Real-time qPCR was performed with SYBR Green (Bio-Rad, Hercules, Calif.). […] Transcription of the three gene families was measured with primers for RL2 (ICPO), UL30 (DNA polymerase catalytic subunit), and UL44 (gC), with reference primers for the 18S ribosomal RNA (rRNA).

## O=c1cc(-c2cccc3c2Sc2ccccc2S3)oc(N2CCOCC2)c1 [KU-55933, 2-(morpholin-4-yl)-6-(thianthren-1-yl)-pyran-4-one]
[1]
  viral replication, treatment administered at 1 hpi and later: significantly less effect
  viral replication, treatment started prior to the 1 hpi timepoint: notable reduction
[2]
  pATM level in corneal epithelium: completely eliminated
[3]
  levels of viral proteins (Western blot): pronounced decrease
[4]
  levels of viral transcripts (ICP0, DNA polymerase, glycoprotein C): reduced
